Measurements from patent publication US10844102B2, “Peptides, compositions, and methods for stimulating subcutaneous adipogenesis” (The Regents of the University of California, priority 2014, dated 2020).

Legend:
[1] = tested on: rat mesenchymal stem cells; assay: Assay 2: adipogenesis, Oil Red O staining (differentiation of pre-adipocytes into adipocytes); type: cell-based; settings: for adipogenic activity in Assay 2: Assay 2, Oil Red O, concentration not given; for adipogenesis quantified by Oil Red O staining, fold change relative to the negative control: three weeks
Experimental: Reagents: The Dexamethasone, IBMX, Insulin, and Oil Red O Solutions were the same as described above for assay 1. Indomethacin Solution contained 10 mM indomethacin in methanol.
Adipogenesis Maintenance Media was prepared as described above.
Adipogenesis Induction Media: To prepare 501.5 mL of Adipogenesis Induction Media, 50 μL of the 10 mM stock Dexamethasone Solution, 500 μL of the 0.5 M IBMX stock solution, 500 μL of the 10 mg/ml stock Insulin Solution, 5 ml of a 10 mM stock Indomethacin Solution, and 5 mL of a 100× stock solution of penicillin and streptomycin were added to 490 mL of mesenchymal stem cell expansion media.
Pre-adipocyte stem cells, bone marrow mesenchymal stem cells or fibroblasts such as dermal reticular and papillary fibroblasts were propagated using standard tissue culture methods. Cells were trypsinized to remove cells from the substratum, the trypsin was neutralized, and cells were counted using a hemocytometer. Cells were resuspended at 20,000 cells/ml in DMEM containing 10% calf serum. 1 mL of cell suspension per well was plated in a 48-well plate, with several wells left empty for blank well (blank control) staining.
Cells were incubated for 2 days overnight and had reached confluency at this point. Media was removed from each well and replaced with 0.5 ml Adipogenesis Induction Media. For negative control (no insulin, no peptide) wells, expansion medium only was used at this step and for subsequent media changes. For all media changes, media was replaced as gently as possible to avoid disturbing the monolayer.
Cells were incubated for 72 hours at 37° C., 5% CO2. Media was removed and replaced with 0.5 ml of Adipogenesis Maintenance Media containing either RHAMM antagonist peptides (experimental group) or insulin (concentration as in the Adipogenesis Induction Media and used as a positive control). Cells were incubated for at least 96 hours in this media at 37° C., 5% CO2. Media was replaced every 48 hours and experiments were terminated between seven and fourteen days after addition of insulin or peptides.
Media was removed and Oil Red O staining was performed as described above for assay 1.
Assay 1 is an assay that promotes transdifferentiation of fibroblasts into adipocytes, whereas Assay 2 promotes differentiation of multi-potential mesenchymal progenitor cells into adipocytes. Immortalized rat bone marrow mesenchymal stem cells were used for both assays. These cells contain cells of different lineages, including fibroblasts, pre-adipocytes, pre-chondrocytes and pre-osteoblasts. Thus, Assay 1 was used to promote transdifferentiation of fibroblast lineages into adipocytes and Assay 2 was used to promote differentiation of the pre-adipocytes into adipocytes.
As described in Example 1 above, the priming stimulus for Assay 1 includes IBMX (3-isobutyl-1-methylxanthine) and dexamethasone, and then insulin as the final adipogenic stimulus. The priming stimulus for assay 2 includes IBMX, dexamethasone and indomethacin, and then insulin as the final adipogenic stimulus.
Adipogenesis was quantified by Oil Red O staining. The peptide was tested at concentrations of 5 and 50 μg/ml over a period of three weeks. Cells were plated in 48-well culture plates, and the purity of the peptides was >95%. All data are presented as the fold change relative to the negative control (Ctr(−))±standard error. The KSEVSK 6-mer (SEQ ID NO: 7) was used as a positive control.

[2] = tested on: 3T3L cells; assay: Adiponectin ELISA on supernatant medium of primed 3T3L cells; type: cell-based, mouse; settings: 10 μg/ml peptide, versus no insulin control
Experimental: 3T3L cells were cultured in T75 culture flasks, in expansion medium (Millipore Corporation), and stored in a 5% CO2 humidified incubator at 37° C. Media was changed every two days until the cells reached 80% confluency. Cells were subcultured in a 96 well plate with a seeding density of 3×10^4 cells per cm^2.
Once cells had just reached confluency, expansion media was replaced with 0.5 mL of Adipogenic Induction Media per well containing 5% serum that had been screened for an ability to maintain stem cells in an undifferentiated state (LifeTechnologies). Cells were incubated for 48 hours at 37° C., 5% CO2. The Adipogenic Induction Media contained DMEM (low glucose, Gibco) +5% serum (LifeSciences) with 0.5 mM IBMX solution, 1 μM Dexamethasone Solution, and 100 μM Indomethacin Solution (priming stimulus). After 48 hr the Adipogenic Induction media was replaced with new media containing 10 μg/ml insulin alone (positive control), or 10 μg/ml peptide (experimental conditions). Negative controls were DMEM +5% serum only. Plates were incubated for two days prior to adiponectin ELISA analyses. Peptides were added daily at 10 μg/ml throughout the remainder of the experiment.
Adiponectin present in the supernatant medium was measured using a mouse adiponectin ELISA (Novex, LifeTechnologies). Briefly, supernatant medium was collected and diluted 1:100. One hundred microliters of the diluted supernatant medium was added to each well of the ELISA plate and incubated for one hour at 37° C. Wells were washed three times with 1× wash buffer and then 100 μl of antibody was added to each well and incubated for one hour at 37° C. The wells were then washed and incubated with 100 μl detector antibody for 1 hr at 37° C. The wells were washed five times with wash buffer and 100 μl of substrate solution was added to each well and incubated for twenty minutes in the dark. The reaction was then stopped by the addition of 100 μl stop solution. Plates were read at 450 nm and concentrations of adiponectin were derived from a standard curve included in the ELISA plate.
Insulin and the KSEVSK peptide (SEQ ID NO: 7) served as positive controls. […] In FIG. 7, values marked by asterisks represent significant changes relative to the no insulin control (i.e., the negative control) using a two-tailed Student's T test, p<0.05.

[3] = tested on: mammary fat pads of aged female rats; assay: In vivo adipogenesis in mammary fat pads of aged female rats (microCT); set-up: species or system rat; settings: eight-month-old female rats, 100 μg peptide in 100 μl collagen gel, 7 days, versus collagen only
Experimental: Peptides were also tested for their ability to stimulate adipogenesis in mammary fat pads of aged (8 month old) female rats in vivo. Mammary fat pads are rich in adipocyte progenitor cells.
Eight-month-old female Sprague Dawley rats (retired breeders) were injected with 100 μl collagen gel (Vitrogen) containing 100 μg peptide into the fourth right mammary fat pad, as depicted in FIG. 10. […] The collagen and peptides were injected at the top of the ROI nearest the nipple. The collagen and peptide diffuse into the fat pad following injection and active peptides target RHAMM-positive progenitor cells present in the fat pad. Collagen alone was injected into the fourth left mammary fat pad as a negative control.
Following injection of the collagen and peptide or collagen alone, animals were maintained on rat chow and water for 7 days and then euthanized. Micro-computed tomography (microCT) imaging of the […] was performed on animals using a Locus Ultra scanner (GE Healthcare, London, ON, Canada). The animals were imaged ex vivo with an X-ray tube voltage of 80 kV and a tube current of 55 mA. Nine hundred projections of data were acquired at an angular increment of 0.4 degrees around the rat in an exposure time of 16 ms. The data were then reconstructed into a 3D volume image with a voxel size of 154 μm. The subcutaneous mammary fat measured in 10×5×3 mm rectangular area (the region of interest (ROI)) below the nipple, avoiding measurement of underlying visceral fat (see the region labeled “fat pad” in FIG. 11). The amount of fat in the ROI was calculated as mass (mg) per ROI.

| Substance | adipogenic activity in Assay 2 [1] | adipogenesis quantified by Oil Red O staining, fold change relative to the negative control ([1]; Assay 2, peptide 5 μg/ml) | adipogenesis quantified by Oil Red O staining, fold change relative to the negative control ([1]; Assay 2, peptide 50 μg/ml) | adipogenic activity in the adiponectin assay (adiponectin secretion) [2] | adipogenesis in vivo in mammary fat pads [3] | specific activity among the 9-mer, 7-mer and 6-mer fragments ([1]; Assay 2) | adipogenic activity in the adiponectin assay (adiponectin secretion) ([2]; listed as KTRASHHV) | adipogenesis in vivo in mammary fat pads ([3]; listed as KTRASHHV) |
| --- | --- | --- | --- | --- | --- | --- | --- | --- |
| KLKDENSQLK (listed as Homo sapiens) | exhibited activity | significant increase in adipogenesis | significant increase in adipogenesis | exhibited activity | exhibited activity |  |  |  |
| KLKDENSQLR (listed as Erinaceus europaeus) | promising results |  |  | not subsequently shown to be adipogenic | not subsequently shown to be adipogenic |  |  |  |
| KSEVSK (listed as Homo sapiens) [reference compound] | exhibit adipogenic activity |  |  |  | mammary fat pad enlargement | highest specific activity |  |  |
| KTRAHHV (listed as Paenibacillus polymyxa) | ablated adipogenic activity |  |  | lack an ability to promote adipogenesis | induce adipogenesis in vivo |  | did not exhibit adipogenic activity | able to induce adipogenesis in vivo |
